Measurements published in patent US10906946B2, “Thrombin inhibitors” (priority 2015, dated 2021).
“Also recorded” adds a separate entry of the source. Like-named read-outs stand apart in the source and are kept apart here. Ends that are not written are not given here. Peptide text beside a SMILES is read from it.

What was measured:
thrombin = biological target: T1, thrombin (Homo sapiens, UniProt P00734); experiment: Inhibition of thrombin fibrinogenolytic activity (fibrinogen clotting time); type: biochemical
T1 construct: residues in the termini of the light chain; and in the autolysis loop and C-terminus of the heavy chain; purchased Chemo-Sero-Therapeutic Research Institute (Kaketsuken, Japan), as a gift, not bought
Protocol: (§1) Thrombin amidolytic activity assays for all peptides were performed in 96-wells microtiter plates in 50 mM Tris buffer (pH 7.4) containing 100 mM NaCl and 1 mg/ml bovine serum albumin. Typically, 100 μl of peptide and 100 μl of thrombin were pre-incubated for different durations before 100 μl of S2238 was added to the reaction wells. The rates of formation of p-nitroaniline were followed by measuring the absorbance at 405 nm for 10 min with a Tecan InfinitePro M200 microplate reader from Tecan (Männedorf, Switzerland). Dose-response curves were fitted using the GraphPad Prizm software (San Diego, Calif., USA) to calculate IC50 values and Hill coefficients. To measure the inhibitory constants, different concentrations of S2238 were used and the residual velocities were determined using the Morrison's tight binding equation. Inhibition of thrombin fibrinogenolytic activity of peptides were tested by measuring absorbance at 650 nm using a Sunrise microplate reader from Tecan (Männedorf, Switzerland) as described previously [Koh C Y, et al., J Biol Chem 282: 29101-13 (2007)]. The selectivity of avathrin was examined against 13 serine proteases (FIG. 5). Effects of avathrin on the amidolytic activities of these serine proteases were determined using respective chromogenic substrates. Cleavage of avathrin by thrombin. Avathrin (150 μM) was incubated with thrombin (5 μM), in 50 mM Tris buffer (pH 7.4) containing 150 mM NaCl and 1 mg/ml BSA. After different incubation times, reactions were quenched with 1% TFA (pH 1.8) and loaded onto a Jupiter Proteo column (4 μm, 90 Å, 100×1.0 mm) attached to a Dionex nano-HPLC system from Thermo Fisher Scientific (Waltham, Mass., USA) and eluted using an acetonitrile gradient with 0.05% TFA and 99.95% MilliQ water as eluent A and 0.05% TFA, 19.95% MilliQ water and 80% ACN as eluent B. Masses of all peaks were measured to identify cleavage products, which were subsequently quantified by integrating the peaks and calculating the area under the curves. To measure the effect of different pre-incubation times on the thrombin inhibitory activity, amidolytic assays were performed for various incubation times (up to 36 h).

human α-thrombin = biological target: T2, human α-thrombin (Homo sapiens, UniProt P00734); experiment: Thrombin amidolytic activity assay with chromogenic substrate S2238; type: biochemical; details: for Hill slope of thrombin amidolytic inhibition: 0 min pre-incubation where stated
T2 construct: residues in the termini of the light chain; purchased Chemo-Sero-Therapeutic Research Institute (Kaketsuken, Japan), as a gift, not bought
Protocol: as §1, with “Typically, 100 μl of peptide and 100 μl of thrombin were pre-incubated for different durations before 100 μl of S2238 was added to the reaction wells.” left out, “Cleavage of avathrin by thrombin.” left out

[1] = tested on: platelets (ADP-induced platelet aggregation); experiment: Preservation of platelet function in blood tubes (Multiplate, ADP-induced platelet aggregation); type: cell-based, human (healthy volunteers); details: control tubes (0.109M citrate; >15 μg/ml hirudin), ADP agonist
Protocol: Individual peptides are dissolved in phosphate buffered saline to prepare 10× peptide solutions (ie. concentrations of peptides are 10 times higher than the final concentrations at which they are to be tested). 0.3 ml of the 10× peptide solutions are placed in blood tubes without any additives. Blood was drawn from healthy volunteers using syringes and immediately transferred to a 50 ml conical centrifuge tube (Falcon tube) before pipetting 2.7 ml of the blood into blood tubes with peptide solutions. Final concentrations of peptides are as stated in Table 5 and 6.
Blood tubes with various peptides at different concentrations were left standing at room temperature until tested at designated times. At different time points, tubes were inverted several times and blood samples were taken out for platelet aggregation tests using a Multiplate® Platelet aggregometer with adenosine diphosphate (ADP) as agonist according to manufacturer's recommended protocols.

[2] = IC50 of inhibition of thrombin amidolytic activity, thrombin 0.81 nM, S2238 100 μM, without pre-incubation (0 min) where stated
[3] = inhibitory constant Ki for thrombin, thrombin 0.81 nM, various S2238 concentrations
[4] = IC50 (nM), Table 4, members of variegin family

Question: What does the source list for CC[C@H](C)[C@H](N)C(=O)N[C@@H](CO)C(=O)N[C@@H](CCCCN)C(=O)N[C@@H](CCC(N)=O)C(=O)NCC(=O)N[C@@H](CC(C)C)C(=O)NCC(=O)NCC(=O)N[C@@H](CC(=O)O)C(=O)N[C@@H](Cc1ccccc1)C(=O)N[C@@H](CCC(=O)O)C(=O)N[C@@H](CCC(=O)O)C(=O)N[C@H](C(=O)N1CCC[C@H]1C(=O)N[C@@H](CO)C(=O)N[C@@H](CC(=O)O)C(=O)N[C@@H](CCC(=O)O)C(=O)N[C@H](C(=O)N[C@H](C(=O)N[C@@H](CCC(=O)O)C(=O)O)[C@@H](C)CC)[C@@H](C)CC)[C@@H](C)CC [IS20] (H-ISKQGLGGDFEEIPSDEIIE-OH; N-terminus and C-terminus assumed)?
Answer: effect on fibrinogen clotting time / thrombin fibrinogenolytic activity (thrombin): inhibited the fibrinogenolytic activity of thrombin in a dose-dependent manner; also recorded: prolonged fibrinogen clotting times in a dose dependent manner; Hill slope of thrombin amidolytic inhibition (human α-thrombin): 0.86±0.02; Hill slope of thrombin amidolytic inhibition, 10 min pre-incubation (human α-thrombin): 0.87±0.01; IC50 (human α-thrombin; [2]): 12.4 ± 0.32 nM; Ki (human α-thrombin; Ki(nM), Table 2): 5.76 ± 0.23 nM; Hill Slope (human α-thrombin; Table 2): 0.86 ± 0.02

Question: What does the source list for CC[C@H](C)[C@H](NC(=O)[C@H](CCCCN)NC(=O)[C@@H]1CCCN1C(=O)[C@@H](NC(=O)[C@H](C)NC(=O)[C@@H](NC(=O)[C@@H](N)CCC(N)=O)[C@@H](C)O)C(C)C)C(=O)N[C@@H](CO)C(=O)N[C@@H](CCCCN)C(=O)N[C@@H](CCC(N)=O)C(=O)NCC(=O)N[C@@H](CC(C)C)C(=O)NCC(=O)NCC(=O)N[C@@H](CC(=O)O)C(=O)N[C@@H](Cc1ccccc1)C(=O)N[C@@H](CCC(=O)O)C(=O)N[C@@H](CCC(=O)O)C(=O)N[C@H](C(=O)N1CCC[C@H]1C(=O)N[C@@H](CO)C(=O)N[C@@H](CC(=O)O)C(=O)N[C@@H](CCC(=O)O)C(=O)N[C@H](C(=O)N[C@H](C(=O)N[C@@H](CCC(=O)O)C(=O)O)[C@@H](C)CC)[C@@H](C)CC)[C@@H](C)CC [QT26] (H-QTAVPKISKQGLGGDFEEIPSDEIIE-OH; N-terminus and C-terminus assumed)?
Answer: effect on fibrinogen clotting time / thrombin fibrinogenolytic activity (thrombin): inhibited; Hill slope of thrombin amidolytic inhibition (human α-thrombin): 0.88±0.03; Hill slope of thrombin amidolytic inhibition, 10 min pre-incubation (human α-thrombin): 0.92±0.03; IC50 (human α-thrombin; [2]): 8.94 ± 0.64 nM; Hill Slope (human α-thrombin; Table 2): 0.88 ± 0.03; Ki (human α-thrombin; [3]): 0.7603 ± 0.00091 nM

Question: Which results are given for CC[C@H](C)[C@H](NC(=O)[C@H](C)NC(=O)[C@H](CC(=O)O)NC(=O)[C@H](CC(=O)O)NC(=O)[C@@H]1CCCN1C(=O)[C@@H](NC(=O)[C@H](CCC(=O)O)NC(=O)[C@H](CCC(=O)O)NC(=O)[C@H](Cc1ccccc1)NC(=O)[C@H](CC(=O)O)NC(=O)CNC(=O)[C@@H]1CCCN1C(=O)[C@@H]1CCCN1C(=O)[C@H](C)NC(=O)[C@@H](NC(=O)[C@H](CO)NC(=O)[C@H](Cc1ccc(O)cc1)NC(=O)[C@@H](N)CCSC)[C@@H](C)O)[C@@H](C)CC)C(=O)N[C@@H](CCC(=O)O)C(=O)N[C@@H](CCC(=O)O)C(=O)O [UV011] (H-MYSTAPPGDFEEIPDDAIEE-OH)?
Answer: fold better Ki than avathrin C-terminal cleavage product IS20 (human α-thrombin): around 4 fold; fold better Ki than variegin C-terminal cleavage product MH22 (human α-thrombin): around 10 fold; IC50 (human α-thrombin; [2]): 1.66 ± 0.77 nM; Ki (human α-thrombin; [3]): 1.39 ± 0.23 nM

Question: With CC[C@H](C)[C@H](NC(=O)[C@H](CCC(=O)O)NC(=O)[C@H](CC(=O)O)NC(=O)[C@H](CC(=O)O)NC(=O)[C@@H]1CCCN1C(=O)[C@@H](NC(=O)[C@H](CCC(=O)O)NC(=O)[C@H](CCC(=O)O)NC(=O)[C@H](Cc1ccccc1)NC(=O)[C@H](CC(=O)O)NC(=O)CNC(=O)[C@@H]1CCCN1C(=O)[C@@H]1CCCN1C(=O)[C@H](C)NC(=O)[C@@H](NC(=O)[C@H](CO)NC(=O)[C@H](Cc1ccc(O)cc1)NC(=O)[C@H](CCSC)NC(=O)[C@H](CCCCN)NC(=O)[C@@H]1CCCN1C(=O)[C@@H](NC(=O)[C@H](C)NC(=O)[C@H](CCCNC(=N)N)NC(=O)[C@@H](NC(=O)[C@H](C)NC(=O)[C@H](CCC(=O)O)NC(=O)[C@H](CC(=O)O)NC(=O)[C@@H](N)CO)C(C)C)[C@@H](C)CC)[C@@H](C)O)[C@@H](C)CC)C(=O)N[C@@H](CCC(=O)O)C(=O)N[C@@H](CCC(=O)O)C(=O)O [UV012] (H-SDEAVRAIPKMYSTAPPGDFEEIPDDEIEE-OH; N-terminus and C-terminus assumed) as the molecule, how does the “fold drop in affinity for thrombin compared to ultravariegin” value (human α-thrombin) read?
Answer: Its value is 5 fold.

Question: Which “Multiplate AUC (U)” value ([1]; 1.5 h) does the source give for O=C(O)CC(O)(CC(=O)O)C(=O)O [citrate, reference compound] here?
Answer: Its value is 37 U.

Question: What about the “Multiplate AUC (U)” value ([1]; 4 h) of the same molecule?
Answer: The value was 32.2 U.

Question: What about the “Multiplate AUC (U)” value ([1]; 24 h) of the same molecule?
Answer: Its value is 12.9 U.

Question: And the “Multiplate AUC (U)” value ([1]; 48 h)?
Answer: Its value is 1.4 U.

Question: And the “Multiplate AUC (U)” value ([1]; 72 h)?
Answer: Its value is 0.7 U.

Question: How did the IC50 (human α-thrombin; [4]) turn out when “ELESGDEDSEGGDSQSSPTESAAPRLHQREGGGGDFENVEYDQDQK [Amblyomma maculatum]” was run?
Answer: The IC50 was 130 ± 1.74 nM.

Question: Which results are given for GLGGDFEEIPSDEIIE [GL16]?
Answer: effect on fibrinogen clotting time / thrombin fibrinogenolytic activity (thrombin): inhibited the fibrinogenolytic activity; also recorded: prolonged fibrinogen clotting times in a dose dependent manner; effect on thrombin amidolytic activity (human α-thrombin; 3-300 μM): did not inhibit amidolytic activity even at 300 μM; also recorded: unable to inhibit thrombin amidolytic activity; Hill Slope (human α-thrombin; Table 2): N. I.; IC50(nM) (human α-thrombin; Table 2): N. I.*; Ki(nM) (human α-thrombin; Table 2): N. I.; activation of thrombin amidolytic activity (human α-thrombin; high concentrations, up to 300 μM): 5-10%

Question: For “SDVAPADYESDEGDNDGGHDGSEVAKPKMPRGNGGGGDFEEIPEVE [Rhipicephalus sanguineus]”, which IC50 (human α-thrombin; Table 4, members of variegin family, read-out: IC50) is on record?
Answer: The IC50 was 42.4 ± 0.62 nM.

Question: And the Ki (human α-thrombin; thrombin 0.81 nM, various S2238 concentrations, read-out: inhibitory constant Ki for thrombin)?
Answer: The Ki was 8.79 ± 0.65 nM.

Question: With “TGSDDDDEYDMYESDGDSNEGNDNDEFETAVPRLPNPNSGRDSEHIPMPVN [Hyalomma marginatum rufipes]” as the molecule, how does the IC50 (human α-thrombin; [4]) read?
Answer: The IC50 was 32.5 ± 3.94 nM.

Question: And the Ki (human α-thrombin; [3])?
Answer: Its Ki is 6.13 ± 0.39 nM.

Question: Which results are given for hirudin [reference compound]?
Answer: Multiplate AUC (U) ([1]; 1.5 h): 69.5 U; Multiplate AUC (U) ([1]; 4 h): 50.2 U; Multiplate AUC (U) ([1]; 24 h): 36.2 U; Multiplate AUC (U) ([1]; 48 h): 29.1 U; Multiplate AUC (U) ([1]; 72 h): 26.9 U
